From ChEMBL document CHEMBL4433230, “Revisiting microtubule targeting agents: α-Tubulin and the pironetin binding site as unexplored targets for cancer therapeutics” (Bioorg Med Chem Lett, 2019)

How the values were obtained:
DC3F = assay: Cytotoxicity against hamster DC-3F cells assessed as reduction in growth after 4 days by HCS assay; assay type: functional; conditions: Cricetulus griseus, 96 h
P388 [1] = assay: Cytotoxicity against mouse P388 cells assessed as reduction in growth after 24 hrs by MTT assay; assay type: functional; conditions: P388, 24 h
[2] = Toxicity in CDF1-SLC mouse injected with mouse P388 cells assessed as change in body weight at 0.78 mg/kg, ip treated for 5 days and measured on day 1 and 10 (reference value: 5.3g); assay type: organism-based; conditions: in vivo, 120 h
[3] = Toxicity in CDF1-SLC mouse injected with mouse P388 cells assessed as change in body weight at 1.56 mg/kg, ip treated for 5 days and measured on day 1 and 10 (reference value: 5.3g); assay type: organism-based; conditions: in vivo, 120 h
[4] = Cytotoxicity against human H69/VDS cells assessed as reduction in growth after 7 days by MTT assay; assay type: functional; conditions: 168 h
[5] = Cytotoxicity against rat KNRK cells assessed as reduction in growth; assay type: functional
P388 [6] = assay: Antitumor activity in CDF1-SLC mouse injected with mouse P388 cells assessed as mean survival time at 1.56 mg/kg, ip treated for 5 days (reference value: 11.2 +/- 0.84 days); assay type: functional
NCI-H69 = assay: Cytotoxicity against human H69 cells assessed as reduction in growth after 7 days by MTT assay; assay type: functional; conditions: NCI-H69, 168 h
HL-60 = assay: Cytotoxicity against human HL60 cells assessed as reduction in growth after 24 hrs by MTT assay; assay type: functional; conditions: HL-60, 24 h
A549 = assay: Cytotoxicity against human A549 cells assessed as reduction in growth after 4 days by HCS assay; assay type: functional; conditions: A549, 96 h
HeLa = assay: Cytotoxicity against human HeLa cells assessed as reduction in growth; assay type: functional
MDA-MB-231 = assay: Cytotoxicity against human MDA-MB-231 cells assessed as reduction in growth after 4 days by HCS assay; assay type: functional; conditions: MDA-MB-231, 96 h
T98G = assay: Cytotoxicity against human T98G cells assessed as reduction in growth after 4 days by MTS assay; assay type: functional; conditions: 96 h
K562/Adr = assay: Cytotoxicity against human K562/ADR cells assessed as reduction in growth after 4 days by MTT assay; assay type: functional; conditions: 96 h
P388 [7] = assay: Antitumor activity in CDF1-SLC mouse injected with mouse P388 cells assessed as mean survival time at 6.25 mg/kg, ip treated for 5 days (reference value: 11.2 +/- 0.84 days); assay type: functional
P388 [8] = assay: Antitumor activity in CDF1-SLC mouse injected with mouse P388 cells assessed as mean survival time at 3.13 mg/kg, ip treated for 5 days (reference value: 11.2 +/- 0.84 days); assay type: functional
[9] = Toxicity in CDF1-SLC mouse injected with mouse P388 cells assessed as change in body weight at 3.13 mg/kg, ip treated for 5 days and measured on day 1 and 10 (reference value: 5.3g); assay type: organism-based; conditions: in vivo, 120 h
Mus musculus = assay: Immunosuppressive activity in […] mouse injected with C57BL/6 mouse EL4 cells assessed as cytotoxic T cells generation by measuring specific lysis level at 5 mg/kg, ip treated for 2 to 15 days and measured on day 16 by gamma scintillation counter method (reference value: 18.6 +/- 4.15%); assay type: functional
MCF7 = assay: Cytotoxicity against human MCF7 cells assessed as reduction in growth after 3 days by MTT assay; assay type: functional; conditions: MCF7, 72 h
P388 [10] = assay: Antitumor activity in CDF1-SLC mouse injected with mouse P388 cells assessed as mean survival time at 0.78 mg/kg, ip treated for 5 days (reference value: 11.2 +/- 0.84 days); assay type: functional
[11] = Cytotoxicity against hamster VCRd5L cells assessed as reduction in growth after 4 days by HCS assay; assay type: functional; conditions: Cricetulus griseus, 96 h
[12] = Cytotoxicity against human H69/Txl cells assessed as reduction in growth after 7 days by MTT assay; assay type: functional; conditions: 168 h
[13] = Toxicity in CDF1-SLC mouse injected with mouse P388 cells assessed as change in body weight at 6.25 mg/kg, ip treated for 5 days and measured on day 1 and 10 (reference value: 5.3g); assay type: organism-based; conditions: in vivo, 120 h
EL4 = assay: Cytotoxicity against C57BL/6 mouse EL4 cells assessed as reduction in growth after 3 days; assay type: functional; conditions: C57BL/6, EL4, 72 h
K562 = assay: Cytotoxicity against human K562 cells assessed as reduction in growth after 4 days by MTT assay; assay type: functional; conditions: K562, 96 h

In the case of `C/C=C/C[C@H](C)[C@@H](OC)[C@@H](C)[C@H](O)C[C@H]1OC(=O)C=C[C@H]1CC` [PIRONETIN], the GI50 (DC3F) is reported as 9.5 nM, the GI50 (P388 [1]) is reported as 100 nM and the Activity [2] is reported as 3.7 g. For the same compound, the Activity [3] was 0.5 g, the GI50 [4] was 20.3 nM and the GI50 [5] was 30 nM. The MST (P388 [6]) was 11.7 days, the GI50 (NCI-H69) was 17.5 nM and the GI50 (HL-60) was 20 nM. For the same compound, the GI50 (A549) was 7.5 nM, the GI50 (HeLa) was 30 nM and the GI50 (MDA-MB-231) was 4.6 nM. For the same compound, the GI50 (T98G) was 7.5 nM, the GI50 (K562/Adr) was 16 nM and the MST (P388 [7]) was 14.3 days. For the same compound, the MST (P388 [8]) was 13.3 days, the Activity [9] was -0.1 g and the Activity (Mus musculus) was 7.4%. The GI50 (MCF7) was 5 nM, the MST (P388 [10]) was 11.2 days and the GI50 [11] was 31 nM. The GI50 [12] was 11.5 nM, the Activity [13] was -2.6 g and the GI50 (EL4) was 15 nM. For the same compound, the GI50 (K562) was 17.3 nM.
